Counter-ions that a name gives are not always drawn. Like-named read-outs stand apart in the source and are kept apart here.
Key:
[1] = system: P-388 leukemia cells; experiment: Antitumor activity against P-388 leukemia cells (i.p. implanted, i.v. drug); assay type: in vivo, BDF1 mice; conditions: Mus musculus, P388, iv, 720 h, read-out: T/C of MST; for response vs control in vivo at 60 mg/kg: dose e: 60 mg/kg/d × 3 (days 1, 5, 9); for response vs control in vivo at 30 mg/kg: dose j: 30 mg/kg/d × 3 (days 1, 5, 9); for response vs control in vivo at 80 mg/kg: dose f: 80 mg/kg/d × 3 (days 1, 5, 9); for response vs control in vivo at 20 mg/kg/day: dose b': 20 mg/kg/d × 2 (days 1, 5); for response vs control in vivo at 40 mg/kg/day: dose c': 40 mg/kg/d × 2 (days 1, 5)
Procedure: BDF1 mice were implanted intraperitoneally with P-388 leukemia cells at a rate of 1×10^6 cells/mouse, and each drug to be tested was administered intravenously on the first, fifth and ninth days, or on the first and fifth days after the implantation. […] The T/C (%) was calculated based on the following equation: [formula]
The drugs tested were as follows: solutions prepared by dissolving each of compound Nos. 34, 36 and 43 to 46 in physiological saline; suspension or solutions prepared by dissolving each of compound Nos. 35, 38 and 49 to 55 in dimethylacetamide, followed by adding thereto a small amount of a surface active agent (e.g., Tween-80) and then physiological saline; and suspension or solutions prepared by mixing each of the other compounds and a small amount of a surface active agent (e.g., Tween-80), followed by adding thereto physiological saline.

[2] = Acute toxicity (LD50, single intravenous administration); design: species or system day mice; conditions: mouse, in vivo, mice, single i.v.
From the text: In Table 15 are shown acute toxicity values (LD50, mg/kg) in day mice in the case of intravenously administering (once) each of the compounds of this invention in the form of preparations shown in the Preparation Examples shown in Table 16.

[3] = i.v., dose b: 20 mg/kg/d × 3 (days 1, 5, 9), 30-day observation
[4] = i.v., dose c: 40 mg/kg/d × 3 (days 1, 5, 9), 30-day observation

## COC1C(O)C(C)OC(OC2C(Oc3cccc4c(OC(=O)c5cc6cc(OCc7ccccc7)ccc6[nH]5)c5c(=O)oc6ccc(C)c7c(=O)oc(c34)c5c67)OC(C)C3OC(c4ccccc4)OC32)C1O (stereo not drawn) [Compound 101]
[1]; i.v., 30-day observation
  response vs control in vivo at 60 mg/kg: 191%
[2]; Preparation Example 2
  LD50: ≥ 60 mg/kg

## COC1C(O)C(C)OC(OC2C(Oc3cccc4c(OC(=O)CCCc5c[nH]c6ccccc56)c5c(=O)oc6ccc(C)c7c(=O)oc(c34)c5c67)OC(C)C3OC(c4ccccc4)OC32)C1O (stereo not drawn) [Compound 104]
[1]; [3]
  response vs control in vivo at 20 mg/kg: 185%
[1]; i.v., 30-day observation
  response vs control in vivo at 60 mg/kg: 256%
  response vs control in vivo at 30 mg/kg: 219%
[2]; Preparation Example 2
  LD50: ≥ 60 mg/kg

## CCn1cc(C(=O)Oc2c3cccc(OC4OC(C)C5OC(c6ccccc6)OC5C4OC4OC(C)C(O)C(OC)C4O)c3c3oc(=O)c4c(C)ccc5oc(=O)c2c3c54)c(=O)c2ccc(C)nc21 (stereo not drawn) [Compound 108]
[1]; i.v., 30-day observation
  response vs control in vivo at 80 mg/kg: 158%
[2]; Preparation Example 4
  LD50: ≥ 80 mg/kg

## CNCC(C)C(=O)Oc1c2cccc(OC3OC(C)C4OC(c5ccccc5)OC4C3OC3OC(C)C(N)C(OC)C3O)c2c2oc(=O)c3c(C)ccc4oc(=O)c1c2c43 (stereo not drawn) [Compound 44]
[1]; [3]
  response vs control in vivo at 20 mg/kg: 138%
[1]; [4]
  response vs control in vivo at 40 mg/kg: 148%
[2]; Preparation Example 8
  LD50: ≥ 40 mg/kg

## COC1C(O)C(C)OC(OC2C(Oc3cccc4c(OC(=O)CCc5ccc6c(c5)OCO6)c5c(=O)oc6ccc(C)c7c(=O)oc(c34)c5c67)OC(C)C3OC(c4ccccc4)OC32)C1O (stereo not drawn) [Compound 22]
[1]; [3]
  response vs control in vivo at 20 mg/kg: 142%
[1]; [4]
  response vs control in vivo at 40 mg/kg: 222%
[2]; Preparation Example 2
  LD50: ≥ 40 mg/kg

## CCn1cc(C(=O)Oc2c3cccc(OC4OC(C)C5OC(c6ccccc6)OC5C4OC4OC(C)C(O)C(OC)C4O)c3c3oc(=O)c4c(C)ccc5oc(=O)c2c3c54)c(=O)c2cnc(N3CCNCC3)nc21 (stereo not drawn) [Compound 106]
[1]; i.v., 30-day observation
  response vs control in vivo at 60 mg/kg: 244%
  response vs control in vivo at 30 mg/kg: 188%
[2]; Preparation Example 1
  LD50: ≥ 60 mg/kg

## COC1C(O)C(C)OC(OC2C(Oc3cccc4c(OC(=O)Cc5ccc6c(c5)OCO6)c5c(=O)oc6ccc(C)c7c(=O)oc(c34)c5c67)OC(C)C3OC(c4ccccc4)OC32)C1O (stereo not drawn) [Compound 29]
[1]
  response vs control in vivo at 20 mg/kg: 201%
  response vs control in vivo at 40 mg/kg: 255%
[2]; Preparation Example 2
  LD50: ≥ 40 mg/kg

## CCOCCC(=O)Oc1c2cccc(OC3OC(C)C4OC(c5ccccc5)OC4C3OC3OC(C)C(N)C(OC)C3O)c2c2oc(=O)c3c(C)ccc4oc(=O)c1c2c43 (stereo not drawn) [Compound 35]
[1]; [3]
  response vs control in vivo at 20 mg/kg: 188%
[1]; [4]
  response vs control in vivo at 40 mg/kg: 244%
[2]; Preparation Example 6
  LD50: ≥ 40 mg/kg

## COC1C(N)C(C)OC(OC2C(Oc3cccc4c(OC(=O)C(C)CN)c5c(=O)oc6ccc(C)c7c(=O)oc(c34)c5c67)OC(C)C3OC(c4ccccc4)OC32)C1O (stereo not drawn) [Compound 34, 6-O-(β-amino-isobutyryl)-3',4'-benzylidene-4"-epiamino-4"-deoxy-chartreusin dihydrochloride]
[1]; [3]
  response vs control in vivo at 20 mg/kg: 140%
[1]; [4]
  response vs control in vivo at 40 mg/kg: 219%
[2]; Preparation Example 8
  LD50: ≥ 40 mg/kg

## COC1C(N)C(C)OC(OC2C(Oc3cccc4c(OC(=O)CCNC(=O)CN)c5c(=O)oc6ccc(C)c7c(=O)oc(c34)c5c67)OC(C)C3OC(c4ccccc4)OC32)C1O (stereo not drawn) [Compound 46]
[1]; [4]
  response vs control in vivo at 40 mg/kg: 148%
[2]; Preparation Example 8
  LD50: ≥ 40 mg/kg

## COC1C(O)C(C)OC(OC2C(Oc3cccc4c(OC(=O)C5CC(OC(C)=O)CC(C)(C)O5)c5c(=O)oc6ccc(C)c7c(=O)oc(c34)c5c67)OC(C)C3OC(c4ccccc4)OC32)C1O (stereo not drawn) [Compound 26]
[2]; Preparation Example 2
  LD50: ≥ 20 mg/kg

## COC1C(O)C(C)OC(OC2C(Oc3cccc4c(OC(=O)CCCCC5CCSS5)c5c(=O)oc6ccc(C)c7c(=O)oc(c34)c5c67)OC(C)C3OC(c4ccccc4)OC32)C1O (stereo not drawn) [Compound 15]
[1]; [3]
  response vs control in vivo at 20 mg/kg: 153%
[1]; [4]
  response vs control in vivo at 40 mg/kg: 201%
[2]; Preparation Example 2
  LD50: ≥ 40 mg/kg

## COC1C(N)C(C)OC(OC2C(Oc3cccc4c(OC(=O)c5cccc(C(F)(F)F)c5)c5c(=O)oc6ccc(C)c7c(=O)oc(c34)c5c67)OC(C)C3OC(c4ccccc4)OC32)C1O (stereo not drawn) [Compound 53]
[1]; [3]
  response vs control in vivo at 20 mg/kg: 131%
[1]; [4]
  response vs control in vivo at 40 mg/kg: 165%
[2]; Preparation Example 6
  LD50: ≥ 40 mg/kg

## COC1C(O)C(C)OC(OC2C(Oc3cccc4c(OC(=O)C5CCCN5C(=O)OCc5ccccc5)c5c(=O)oc6ccc(C)c7c(=O)oc(c34)c5c67)OC(C)C3OC(C)(C)OC32)C1O (stereo not drawn) [Compound 3, 6-O-(N-carbobenzyloxy-prolyl)-3',4'-O-isopropylidene-chartreusin]
[1]; [4]
  response vs control in vivo at 40 mg/kg: 139%
[1]; i.v., 30-day observation
  response vs control in vivo at 80 mg/kg: 195%
[2]; Preparation Example 3
  LD50: ≥ 160 mg/kg

## COC1C(O)C(C)OC(OC2C(Oc3cccc4c(OC(=O)c5cc(-c6ccccc6)nc6ccccc56)c5c(=O)oc6ccc(C)c7c(=O)oc(c34)c5c67)OC(C)C3OC(c4ccccc4)OC32)C1O (stereo not drawn) [Compound 28]
[1]; [3]
  response vs control in vivo at 20 mg/kg: 197%
[1]; i.v., 30-day observation
  response vs control in vivo at 80 mg/kg: 192%
[2]; Preparation Example 1
  LD50: ≥ 20 mg/kg

## COC1C(O)C(C)OC(OC2C(Oc3cccc4c(OC(=O)C5CCN(C(=O)C(F)(F)F)CC5)c5c(=O)oc6ccc(C)c7c(=O)oc(c34)c5c67)OC(C)C3OC(C)(C)OC32)C1O (stereo not drawn) [Compound 23]
[1]; [4]
  response vs control in vivo at 40 mg/kg: 127%
[2]; Preparation Example 3
  LD50: ≥ 40 mg/kg

## COC1C(O)C(C)OC(OC2C(Oc3cccc4c(OC(=O)c5cc6cc(O)ccc6[nH]5)c5c(=O)oc6ccc(C)c7c(=O)oc(c34)c5c67)OC(C)C3OC(c4ccccc4)OC32)C1O (stereo not drawn) [Compound 102]
[1]; i.v., 30-day observation
  response vs control in vivo at 60 mg/kg: 256%
  response vs control in vivo at 30 mg/kg: 233%
[2]; Preparation Example 1
  LD50: ≥ 60 mg/kg

## COC1C(N)C(C)OC(OC2C(Oc3cccc4c(OC(=O)Cc5ccccc5)c5c(=O)oc6ccc(C)c7c(=O)oc(c34)c5c67)OC(C)C3OC(c4ccccc4)OC32)C1O (stereo not drawn) [Compound 50]
[1]; i.v., 30-day observation
  response vs control in vivo at 20 mg/kg/day: 165%
  response vs control in vivo at 40 mg/kg/day: 208%
[2]; Preparation Example 7
  LD50: ≥ 40 mg/kg

## COC1C(O)C(C)OC(OC2C(Oc3cccc4c(OC(=O)C5CC(=O)CC(C)(C)O5)c5c(=O)oc6ccc(C)c7c(=O)oc(c34)c5c67)OC(C)C3OC(c4ccccc4)OC32)C1O (stereo not drawn) [Compound 32]
[1]; i.v., 30-day observation
  response vs control in vivo at 20 mg/kg/day: 185%
  response vs control in vivo at 40 mg/kg/day: 213%
[2]; Preparation Example 2
  LD50: ≥ 40 mg/kg

## COC1C(O)C(C)OC(OC2C(Oc3cccc4c(OC(=O)C5CCCN(C)C5)c5c(=O)oc6ccc(C)c7c(=O)oc(c34)c5c67)OC(C)C3OC(c4ccccc4)OC32)C1O (stereo not drawn) [Compound 24]
[1]; i.v., 30-day observation
  response vs control in vivo at 20 mg/kg/day: 152%
  response vs control in vivo at 40 mg/kg/day: 186%
[2]; Preparation Example 2
  LD50: ≥ 40 mg/kg

## CNCCC(=O)Oc1c2cccc(OC3OC(C)C4OC(c5ccccc5)OC4C3OC3OC(C)C(N)C(OC)C3O)c2c2oc(=O)c3c(C)ccc4oc(=O)c1c2c43 (stereo not drawn) [Compound 43]
[1]; [3]
  response vs control in vivo at 20 mg/kg: 150%
[1]; [4]
  response vs control in vivo at 40 mg/kg: 230%
[2]; Preparation Example 8
  LD50: ≥ 40 mg/kg

## COC1C(O)C(C)OC(OC2C(Oc3cccc4c(OC(=O)c5ccc(C)s5)c5c(=O)oc6ccc(C)c7c(=O)oc(c34)c5c67)OC(C)C3OC(C)(C)OC32)C1O (stereo not drawn) [Compound 12]
[1]; i.v., 30-day observation
  response vs control in vivo at 80 mg/kg: 194%
[2]; Preparation Example 3
  LD50: ≥ 80 mg/kg

## COC1C(N)C(C)OC(OC2C(Oc3cccc4c(OC(=O)CCNC=O)c5c(=O)oc6ccc(C)c7c(=O)oc(c34)c5c67)OC(C)C3OC(c4cccc(Br)c4)OC32)C1O (stereo not drawn) [Compound 38]
[1]; i.v., 30-day observation
  response vs control in vivo at 80 mg/kg: 133%
[2]; Preparation Example 6
  LD50: ≥ 80 mg/kg

## CCn1cc(C(=O)Oc2c3cccc(OC4OC(C)C5OC(c6ccccc6)OC5C4OC4OC(C)C(O)C(OC)C4O)c3c3oc(=O)c4c(C)ccc5oc(=O)c2c3c54)c(=O)c2cnc(N3CCCC3)nc21 (stereo not drawn) [Compound 105]
[1]; i.v., 30-day observation
  response vs control in vivo at 60 mg/kg: 256%
  response vs control in vivo at 30 mg/kg: 165%
[2]; Preparation Example 2
  LD50: ≥ 60 mg/kg

## COC1C(N)C(C)OC(OC2C(Oc3cccc4c(OC(=O)CCC(C)=O)c5c(=O)oc6ccc(C)c7c(=O)oc(c34)c5c67)OC(C)C3OC(c4ccccc4)OC32)C1O (stereo not drawn) [Compound 48]
[1]; [3]
  response vs control in vivo at 20 mg/kg: 166%
[1]; [4]
  response vs control in vivo at 40 mg/kg: 219%
[2]; Preparation Example 1
  LD50: ≥ 40 mg/kg

## COC1C(O)C(C)OC(OC2C(Oc3cccc4c(OC(=O)c5ocnc5C)c5c(=O)oc6ccc(C)c7c(=O)oc(c34)c5c67)OC(C)C3OC(c4ccccc4)OC32)C1O (stereo not drawn) [Compound 103]
[1]; i.v., 30-day observation
  response vs control in vivo at 60 mg/kg: 236%
  response vs control in vivo at 30 mg/kg: 210%
[2]; Preparation Example 2
  LD50: ≥ 60 mg/kg

## COC1C(O)C(C)OC(OC2C(Oc3cccc4c(OC(=O)c5ccc6ccccc6n5)c5c(=O)oc6ccc(C)c7c(=O)oc(c34)c5c67)OC(C)C3OC(C)(C)OC32)C1O (stereo not drawn) [Compound 27]
[1]; [4]
  response vs control in vivo at 40 mg/kg: 142%
[2]; Preparation Example 5
  LD50: ≥ 80 mg/kg

## CCn1cc(C(=O)Oc2c3cccc(OC4OC(C)C5OC(C)(C)OC5C4OC4OC(C)C(O)C(OC)C4O)c3c3oc(=O)c4c(C)ccc5oc(=O)c2c3c54)c(=O)c2ccc(C)nc21 (stereo not drawn) [Compound 107]
[1]; i.v., 30-day observation
  response vs control in vivo at 80 mg/kg: 134%
[2]; Preparation Example 4
  LD50: ≥ 80 mg/kg
